Assay results published in patent US20250353859A1, “COMPOUNDS AS CCR6 INHIBITORS” (Hoffmann-La Roche Inc., priority 2023, published 2025).

Tests used:
Assay type in all cases: cell-based
[1] = system: Human CD4+ T cells; test: CD4+ T cells chemotaxis assay towards CCL20; details: CD4+ T cell, 3 h
Description: Human CD4+ T cells were isolated from buffy coats of healthy donors using aCD4+ T Cell Isolation Kit(Miltenyi Biotec 130-096-533). Isolated T cells were stimulated overnight with anti-CD3 and anti-CD28 antibodies (Biolegend 300314/302934) in growth medium (RPMI1640, 10% heat-inactivated FBS, 1× pen/strep (Gibco 15140)). For the chemotaxis assay, Corning Transwell plates were used with a pore size of 5 m (Corning 3388). T cells were counted and diluted to 6*10^6 cells/ml in chemotaxis medium (RPMI1640, 1% BSA, pen/strep). Compounds were four-fold serially diluted in DMSO. Further dilutions were made in chemotaxis medium. Cells were incubated with test compounds for 30 min at 37° C. prior to initiation of the assay (3*10^6 cells/ml). Final DMSO concentration in the assay was 0.2%. Wells of the Transwell plates were filled with 200 μl chemotaxis medium containing 150 ng/ml CCL20 (R&D systems 360-MP). 50 μl of the cell/compound suspension was added to the inserts of the Transwell plates (150,000 cells/insert). The Transwell plates were placed in an incubator at 37° C., 5% CO2 for 3 h. After 3 h, the number of migrated cells was quantified using CellTiter Glo (Promega). Percentage inhibition values were calculated based on the low and high signal obtained with 0.2% DMSO in chemotaxis medium without and with CCL20, respectively. The relative Log IC50 was determined with GraphPad Prism 9 using a four-parameter dose-response model.

[2] = target: T1, human CCR6 (Homo sapiens, UniProt P51684); test: Human CCR6-CRE reporter assay; set-up: The second construct contained the open reading frame of human CCR6 in the pUNO1 backbone; host or cells: 293FT cells (transient transfection with TransIT-293)
T1 sequence (P51684 1-374): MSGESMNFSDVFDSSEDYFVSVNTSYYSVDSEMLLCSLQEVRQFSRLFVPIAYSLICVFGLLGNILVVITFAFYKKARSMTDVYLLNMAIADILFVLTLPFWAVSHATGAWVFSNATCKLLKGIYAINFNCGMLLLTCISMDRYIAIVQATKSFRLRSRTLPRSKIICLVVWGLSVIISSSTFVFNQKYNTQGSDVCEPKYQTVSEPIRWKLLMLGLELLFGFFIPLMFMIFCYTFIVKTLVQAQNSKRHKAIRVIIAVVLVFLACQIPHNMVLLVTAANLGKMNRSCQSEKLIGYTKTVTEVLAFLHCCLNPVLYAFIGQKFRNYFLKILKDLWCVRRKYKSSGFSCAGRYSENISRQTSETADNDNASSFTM
Outline: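 293FT cells transiently co-transfected with human CCR6 and a CRE-luc2P reporter, used 48 h later. Compounds in medium with 6 μM forskolin and 6 nM CCL20, 0.1% DMSO final, 5 h at 37° C. Luminescence read; relative log IC50 from a four-parameter fit.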

[3] = target: T1, human CCR6; test: CHO-K1 CCR6 chemotaxis assay towards CCL20; details: CHO-K1 cells overexpressing human CCR6; 100 ng/ml CCL20, 4 h; relative Log IC50
Description: Cells overexpressing human CCR6 were used in the chemotaxis assay (DiscoverX, cAMP Hunter™ CHO-K1 CCR6 Gi Cell Line). Growth medium of these cells consisted of DMEM/F12, non-essential Amino acids (1×NEAA, Gibco 11140050), 10% FBS and 1× pen/strep (Gibco 15140). For the chemotaxis assay, Corning Transwell plates were used with a pore size of 8 m (Corning 351164). Cells were harvested using trypsin and diluted to 4*10^6 cells/ml in chemotaxis medium (DMEM, 0.25% BSA, pen/strep). Compounds were four-fold serially diluted in DMSO. Further dilutions were made in chemotaxis medium. Cells were incubated with test compounds for 30 min at 37° C. prior to initiation of the assay (2*10^6 cells/ml). Final DMSO concentration in the assay was 0.2%. Wells of the Transwell plates were filled with 200 μl chemotaxis medium containing 100 ng/ml CCL20 (R&D systems 360-MP). 50 μl of the cell/compound suspension was added to the inserts of the Transwell plates (100,000 cells/insert). The Transwell plates were placed in an incubator at 37° C., 5% CO2 for 4 h. After 4 h, the number of migrated cells was quantified using CellTiter Glo (Promega). Percentage inhibition values were calculated based on the low and high signal obtained with 0.2% DMSO in chemotaxis medium without and with CCL20, respectively. The relative Log IC50 was determined with GraphPad Prism 9 using a four-parameter dose-response model.

[4] = 293FT cells transfected with human CCR6 and CRE-luciferase, Forskolin + CCL20, 5 h, relative Log IC50, read-out: CCR6-CRE reporter (converted)

SMILES	IC50 [1] [nM]	IC50 [2, 4] [nM]	IC50 [3] [nM]	IC50 ([2]; scaffold variant X = S, R1 = CF3, read-out: Activity in human CCR6-CRE reporter assay) [nM]
CC(C)c1cnc2ccc(-c3ccc(S(=N)(=O)[C@H]4CC[C@H](Nc5ccc(SC(F)(F)F)cc5)CC4)cc3)cn12 (stereo partly drawn) [Example 51, {4-[3-(propan-2-yl)imidazo[1,2-a]pyridin-6-yl]phenyl}[trans-4-({4-[(trifluoromethyl)sulfanyl]phenyl}Amino)cyclohexyl](imino)-λ^6-sulfanone]		79.4	794	
Cc1cc(-c2ccc(S(=O)(=O)N3CCC(Nc4ccc(OC(F)(F)F)cn4)CC3)cc2)cn2c(C(C)C)nnc12 [Example 57, N-(1-{4-[8-methyl-3-(propan-2-yl)-[1,2,4]triazolo[4,3-a]pyridin-6-yl]benzenesulfonyl}piperidin-4-yl)-5-(trifluoromethoxy)pyridin-2-amine]		39.8	7.94	
CC(C)c1nnc2cnc(-c3ccc(S(=O)(=O)N4CCC(Nc5ccc(OC(F)(F)F)cn5)CC4)cc3)cn12 [Example 59, N-(1-{4-[3-(propan-2-yl)-[1,2,4]triazolo[4,3-a]pyrazin-6-yl]benzenesulfonyl}piperidin-4-yl)-5-(trifluoromethoxy)pyridin-2-amine]		63.1	7.94	
NC(=O)c1cc(-c2ccc(S(=O)(=O)N3CCC(Nc4ccc(SC(F)(F)F)cn4)CC3)cc2)ccn1 [Example 63, 4-(4-{[4-({5-[(trifluoromethyl)sulfanyl]pyridin-2-yl}amino)piperidin-1-yl]sulfonyl}phenyl)pyridine-2-carboxamide]			15.8	74
CC(C)c1nnc2ccc(-c3ccc(S(=O)(=O)N4CCC(Nc5ccc(SC(F)(F)F)cn5)CC4)cc3)cn12 [Example 65, N-(1-{4-[3-(propan-2-yl)-[1,2,4]triazolo[4,3-a]pyridin-6-yl]benzenesulfonyl}piperidin-4-yl)-5-[(trifluoromethyl)sulfanyl]pyridin-2-amine]	5.01	25.1		
CC(C)c1nnc2cnc(-c3ccc(S(=O)(=O)N4CCC(Nc5ccc(SC(F)(F)F)cn5)CC4)cc3)cn12 [Example 66, N-(1-{4-[3-(propan-2-yl)-[1,2,4]triazolo[4,3-a]pyrazin-6-yl]benzenesulfonyl}piperidin-4-yl)-5-[(trifluoromethyl)sulfanyl]pyridin-2-amine]	1.58	31.6		

Now from value to compound:

IC50 [1] [nM]	IC50 [2, 4] [nM]	IC50 [3] [nM]	IC50 ([2]; scaffold variant X = S, R1 = CF3, read-out: Activity in human CCR6-CRE reporter assay) [nM]	SMILES
50.1	39.8			N#Cc1ccc(-c2ccc(S(=O)(=O)N3CCC(Nc4ccc(OC(F)(F)F)cc4)CC3)cc2)cc1 [Example 1, 4′-[(4-{[4-(trifluoromethoxy)phenyl]Amino}piperidin-1-yl)sulfonyl]-[1,1′-biphenyl]-4-carbonitrile]
20	100			CNC(=O)c1cccc(-c2ccc(S(=O)(=O)N3CCC(Nc4ccc(OC(F)(F)F)cc4)CC3)cc2)c1 [Example 4, N-methyl-4′-[(4-{[4-(trifluoromethoxy)phenyl]Amino}piperidin-1-yl)sulfonyl]-[1,1′-biphenyl]-3-carboxamide]
50.1	126			Cc1n[nH]c2ccc(-c3ccc(S(=O)(=O)N4CCC(Nc5ccc(OC(F)(F)F)cc5)CC4)cc3)cc12 [Example 6, 1-[4-(3-methyl-1H-indazol-5-yl)benzenesulfonyl]-N-[4-(trifluoromethoxy)phenyl]piperidin-4-amine]
10	79.4			N#Cc1c[nH]c2ccc(-c3ccc(S(=O)(=O)N4CCC(Nc5ccc(OC(F)(F)F)cc5)CC4)cc3)cc12 [Example 13, 5-{4-[(4-{[4-(trifluoromethoxy)phenyl]Amino}piperidin-1-yl)sulfonyl]phenyl}-1H-indole-3-carbonitrile]
	79.4	2		Cc1cc(-c2ccc(S(=O)(=O)N3CCC(Nc4ccc(OC(F)(F)F)cn4)CC3)cc2)cn2c(C(C)C)cnc12 [Example 55, N-(1-{4-[8-methyl-3-(propan-2-yl)imidazo[1,2-a]pyridin-6-yl]benzenesulfonyl}piperidin-4-yl)-5-(trifluoromethoxy)pyridin-2-amine]
